From US20230233569A1 (Revolution Medicines, Inc., priority 2020, published 2023)
Where “and” joins values, the source holds several entries; their conditions need not be identical. Equal entries are not always repeated. Where two headings read alike, the source gives them in different places.

Key:
Assay in all cases: Disruption of BRAF RBD interaction with Ras (FRET / MOA assay, with Cyclophilin A)
Format in all cases: biochemical
KRAS G12C = KRAS G12C (Homo sapiens, UniProt P01116+P62937, G12C)
Summary of the method: (§1)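 Compound-driven ternary complex formation between nucleotide-loaded K-Ras and Cyclophilin A was measured as loss of BRAF RBD binding. Compounds (10-point 3-fold series, top 30 μM final) were incubated 3 h at 25 °C, then anti-His Eu-W1024 (10 nM) and anti-GST allophycocyanin (50 nM) added for 1.5 h. IC50 was taken from the TR-FRET ratio decrease versus DMSO.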

KRAS G12D = KRAS G12D (Homo sapiens, UniProt P01116+P62937, G12D); settings: read-out: KRAS G12D FRET data, IC50
Summary of the method: as §1

KRAS G12S = KRAS G12S (Homo sapiens, UniProt P01116+P62937, G12S)
Summary of the method: as §1

KRAS G12V = KRAS G12V (Homo sapiens, UniProt P01116+P62937, G12V)
Summary of the method: as §1

KRAS G13C = KRAS G13C (Homo sapiens, UniProt P01116+P62937, G13C); settings: KRAS G13C; read-out: KRAS G13C FRET data IC50
Summary of the method: as §1

KRAS G13D = KRAS G13D (Homo sapiens, UniProt P01116+P62937, G13D)
Summary of the method: as §1

KRAS WT = KRAS WT (Homo sapiens, UniProt P01116+P62937)
Summary of the method: as §1

NRAS G12C = NRAS G12C (Homo sapiens, UniProt P01111+P62937, G12C)
KRAS Q61H = KRAS Q61H (Homo sapiens, UniProt P01116+P62937, Q61H); settings: KRAS Q61H; read-out: KRAS Q61H FRET data IC50
Summary of the method: (§2)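 TR-FRET in 25 mM HEPES pH 7.3, 100 mM NaCl, 5 mM MgCl2, 0.1% BSA: 25 μM Cyclophilin A, 12.5 nM His6-Ras-GMPPNP, 50 nM GST-BRAF RBD with compound (10-point 3-fold series from 30 μM), 3 h at 25° C. Anti-His Eu/anti-GST APC added, 1.5 h more; IC50 from decreased FRET ratio versus DMSO.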

NRAS Q61K = NRAS Q61K (Homo sapiens, UniProt P01111+P62937, Q61K); settings: NRAS Q61K; read-out: NRAS Q61K FRET data IC50
Summary of the method: as §2

NRAS Q61R = NRAS Q61R (Homo sapiens, UniProt P01111+P62937, Q61R); settings: NRAS Q61R; read-out: NRAS Q61R FRET data IC50
Summary of the method: as §2

[1] = read-out: KRAS G12S FRET data, IC50
[2] = KRAS G12V, read-out: KRAS G12V FRET data IC50
[3] = KRAS WT, read-out: KRAS WT FRET data IC50
[4] = KRAS G12C, read-out: KRAS G12C FRET data IC50
[5] = KRAS G13D, read-out: KRAS G13D FRET data IC50
[6] = NRAS G12C, read-out: NRAS G12C FRET data IC50

KRAS G12S, sequence (P01116 1-169 isoform P01116-2 G12S limits assumed): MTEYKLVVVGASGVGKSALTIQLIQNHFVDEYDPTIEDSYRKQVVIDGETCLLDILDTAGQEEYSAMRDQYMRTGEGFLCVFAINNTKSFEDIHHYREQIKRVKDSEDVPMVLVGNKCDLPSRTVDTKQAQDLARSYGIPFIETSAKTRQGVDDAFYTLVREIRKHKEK
KRAS G12S, sequence (P62937 whole entry): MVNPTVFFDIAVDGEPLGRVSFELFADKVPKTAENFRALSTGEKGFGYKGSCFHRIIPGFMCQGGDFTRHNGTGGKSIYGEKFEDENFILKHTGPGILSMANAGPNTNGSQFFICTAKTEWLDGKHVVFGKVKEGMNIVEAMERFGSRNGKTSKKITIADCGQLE
KRAS G13D, sequence (P01116 1-169 isoform P01116-2 G13D limits assumed): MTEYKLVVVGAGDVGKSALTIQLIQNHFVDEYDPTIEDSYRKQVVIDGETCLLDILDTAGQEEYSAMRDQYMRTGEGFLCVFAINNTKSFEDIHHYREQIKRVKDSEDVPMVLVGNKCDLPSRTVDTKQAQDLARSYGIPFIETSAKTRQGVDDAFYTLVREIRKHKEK
KRAS G13D, sequence (P62937 whole entry): as the sequence (P62937 whole entry) above
KRAS G12C, sequence (P01116 1-169 isoform P01116-2 G12C): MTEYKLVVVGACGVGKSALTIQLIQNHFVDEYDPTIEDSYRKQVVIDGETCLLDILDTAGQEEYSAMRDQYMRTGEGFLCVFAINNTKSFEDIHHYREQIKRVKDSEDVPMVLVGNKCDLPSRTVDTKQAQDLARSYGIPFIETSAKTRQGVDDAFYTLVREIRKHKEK
KRAS G12C, sequence (P62937 whole entry): as the sequence (P62937 whole entry) above
KRAS G13C, sequence (P01116 1-169 isoform P01116-2 G13C): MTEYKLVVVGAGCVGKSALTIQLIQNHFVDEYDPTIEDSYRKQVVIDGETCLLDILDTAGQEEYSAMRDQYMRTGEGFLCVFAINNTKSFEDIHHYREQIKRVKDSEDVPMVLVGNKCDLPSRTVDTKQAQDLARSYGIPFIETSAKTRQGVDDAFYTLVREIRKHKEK
KRAS G13C, sequence (P62937 whole entry): as the sequence (P62937 whole entry) above
NRAS Q61R, sequence (P01111 whole entry Q61R): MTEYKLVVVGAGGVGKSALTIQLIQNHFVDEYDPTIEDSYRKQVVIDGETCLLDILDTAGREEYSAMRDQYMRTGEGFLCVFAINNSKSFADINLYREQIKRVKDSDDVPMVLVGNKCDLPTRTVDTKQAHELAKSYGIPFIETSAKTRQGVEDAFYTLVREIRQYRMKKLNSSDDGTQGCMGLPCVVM
NRAS Q61R, sequence (P62937 whole entry): as the sequence (P62937 whole entry) above
NRAS Q61K, sequence (P01111 whole entry Q61K): as the sequence (P01111 whole entry Q61R) above, with R61K counted along it
NRAS Q61K, sequence (P62937 whole entry): as the sequence (P62937 whole entry) above
KRAS WT, sequence (P01116 1-169 isoform P01116-2 limits assumed): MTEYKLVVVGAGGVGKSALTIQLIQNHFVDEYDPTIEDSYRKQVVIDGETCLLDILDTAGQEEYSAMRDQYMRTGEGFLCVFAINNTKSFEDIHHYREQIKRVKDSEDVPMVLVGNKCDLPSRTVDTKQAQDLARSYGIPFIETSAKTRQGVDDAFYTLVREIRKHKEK
KRAS WT, sequence (P62937 whole entry): as the sequence (P62937 whole entry) above
KRAS Q61H, sequence (P01116 1-169 isoform P01116-2 Q61H limits assumed): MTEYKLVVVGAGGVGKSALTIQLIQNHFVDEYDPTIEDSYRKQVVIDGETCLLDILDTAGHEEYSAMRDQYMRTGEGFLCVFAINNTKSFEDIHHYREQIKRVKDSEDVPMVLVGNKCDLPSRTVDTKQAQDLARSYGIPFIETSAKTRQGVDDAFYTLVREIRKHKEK
KRAS Q61H, sequence (P62937 whole entry): as the sequence (P62937 whole entry) above
KRAS G12D, sequence (P01116 1-169 isoform P01116-2 G12D limits assumed): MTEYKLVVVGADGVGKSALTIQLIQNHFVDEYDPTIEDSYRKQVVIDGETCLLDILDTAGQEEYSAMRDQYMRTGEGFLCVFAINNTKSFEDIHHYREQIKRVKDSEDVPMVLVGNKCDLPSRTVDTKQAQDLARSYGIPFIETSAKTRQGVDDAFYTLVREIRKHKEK
KRAS G12D, sequence (P62937 whole entry): as the sequence (P62937 whole entry) above
KRAS G12V, sequence (P01116 1-169 isoform P01116-2 G12V limits assumed): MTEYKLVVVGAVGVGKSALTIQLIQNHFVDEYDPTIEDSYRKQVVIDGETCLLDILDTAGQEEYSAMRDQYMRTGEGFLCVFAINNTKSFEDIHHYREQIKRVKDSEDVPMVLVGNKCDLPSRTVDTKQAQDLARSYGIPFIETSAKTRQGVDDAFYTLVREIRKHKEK
KRAS G12V, sequence (P62937 whole entry): as the sequence (P62937 whole entry) above
NRAS G12C, sequence (P01111 whole entry G12C): as the sequence (P01111 whole entry Q61R) above, with G12C, R61Q counted along it
NRAS G12C, sequence (P62937 whole entry): as the sequence (P62937 whole entry) above

Structure (SMILES) | IC50 (KRAS G12C; KRAS G12C FRET data IC50, KRAS G12C) | IC50 (KRAS G12D) | IC50 (KRAS G12S; KRAS G12S FRET data, IC50) | IC50 (KRAS G12S; [1]) | IC50 (KRAS G12V; KRAS G12V FRET data IC50, KRAS G12V) | IC50 (KRAS G12V; [2]) | IC50 (KRAS G13C) | IC50 (KRAS G13D; KRAS G13D FRET data IC50, KRAS G13D) | IC50 (KRAS WT; KRAS WT FRET data IC50, KRAS WT) | IC50 (KRAS WT; [3]) | IC50 (NRAS G12C; NRAS G12C FRET data IC50, NRAS G12C) | IC50 (KRAS Q61H) | IC50 (NRAS Q61K) | IC50 (NRAS Q61R) | IC50 (KRAS G12C; [4]) | IC50 (KRAS G13D; [5]) | IC50 (NRAS G12C; [6])
C=CC(=O)N1CC[C@H](C(=O)N(C)[C@H](C(=O)N[C@H]2Cc3cc(O)cc(c3)-c3ccc4c(c3)c(c(-c3cc(C)cnc3[C@H](C)OC)n4CC)CC(C)(C)COC(=O)[C@@H]3CCCN(N3)C2=O)C(C)C)C1 [Example A167] | 100 to 1000 nM and < 10 nM | > 10000 nM and 100 to 1000 nM | 10 to 100 nM | 1000 to 10000 nM | 10 to 100 nM | 1000 to 10000 nM | 1000 to 10000 nM and 10 to 100 nM | 100 to 1000 nM and > 10000 nM | 10 to 100 nM | 1000 to 10000 nM | 100 to 1000 nM and < 10 nM | 10 to 100 nM | 100 to 1000 nM | 100 to 1000 nM | – | – | –
CC#CC(=O)N1CC[C@H](C(=O)N(C)[C@H](C(=O)N[C@H]2Cc3nc(cs3)-c3ccc4c(c3)c(c(-c3cccnc3[C@H](C)OC)n4CC)CC(C)(C)COC(=O)[C@@H]3CCCN(N3)C2=O)C(C)C)C1 [Example A168] | – | > 10000 nM | – | 1000 to 10000 nM | – | 1000 to 10000 nM | 1000 to 10000 nM | – | – | 1000 to 10000 nM | – | 1000 to 10000 nM | 1000 to 10000 nM | 1000 to 10000 nM | 100 to 1000 nM | > 10000 nM | 1000 to 10000 nM
C=CS(=O)(=O)N1CC[C@H](C(=O)N(C)[C@H](C(=O)N[C@H]2Cc3nc(cs3)-c3ccc4c(c3)c(c(-c3cncnc3)n4CC)CC(C)(C)COC(=O)[C@@H]3CCCN(N3)C2=O)C(C)C)C1 [Example A170] | – | > 10000 nM | – | > 10000 nM | – | > 10000 nM | 1000 to 10000 nM | – | – | > 10000 nM | – | > 10000 nM | > 10000 nM | > 10000 nM | 1000 to 10000 nM | > 10000 nM | 1000 to 10000 nM
C=CC(=O)N1CC[C@H](C(=O)N(C)[C@H](C(=O)N[C@H]2Cc3cc(O)cc(c3)-c3cnc4c(c3)c(c(-c3ccccc3CCOC)n4CC)CC(C)(C)COC(=O)[C@@H]3CCCN(N3)C2=O)C(C)C)C1 [Example A210] | – | > 10000 nM | – | 1 µM to 10 µM and > 10 µM (3×) | – | 1 µM to 10 µM and > 10 µM (3×) | > 10000 nM | – | – | > 10000 nM | – | 1000 to 10000 nM | 1000 to 10000 nM | > 10000 nM | 100 nM to 1 µM and 1 µM to 10 µM and > 10 µM (2×) | > 10000 nM | 100 nM to 1 µM and 1 µM to 10 µM and > 10 µM (2×)
C=CC(=O)N1CC[C@H](C(=O)N(C)[C@H](C(=O)N[C@H]2Cc3cc(O)cc(c3)-c3ccc4c(c3)c(c(-c3ccnc5c3[C@@H](OC)CC5)n4CC)CC(C)(C)COC(=O)[C@@H]3CCCN(N3)C2=O)C(C)C)C1 [Example A275] | – | 100 to 1000 nM | – | 10 to 100 nM | – | 10 to 100 nM | 10 to 100 nM | – | – | 100 to 1000 nM | – | 10 to 100 nM | 100 to 1000 nM | 100 to 1000 nM | 10 to 100 nM | 100 to 1000 nM | 10 to 100 nM
C=CC(=O)N1CC[C@@H](N(C)C(=O)N(C)[C@H](C(=O)N[C@H]2Cc3nc(cs3)-c3ccc4c(c3)c(c(-c3cccnc3[C@H](C)OC)n4CC)CC(C)(C)COC(=O)[C@@H]3CCCN(N3)C2=O)C(C)C)C1 [Example A349] | – | 100 to 1000 nM | – | 100 to 1000 nM | – | 100 to 1000 nM | 100 to 1000 nM | – | – | 100 to 1000 nM | – | 10 to 100 nM | 10 to 100 nM | 100 to 1000 nM | 10 to 100 nM | 100 to 1000 nM | 10 to 100 nM
CCn1c(-c2cccnc2[C@H](C)OC)c2c3cc(ccc31)-c1csc(n1)C[C@H](NC(=O)[C@H](C(C)C)N(C)C(=O)N1CC(N(C)C(=O)C#CC(C)(C)N3CCC3)C1)C(=O)N1CCC[C@H](N1)C(=O)OCC(C)(C)C2 [Example A379] | – | 1000 to 10000 nM | – | 100 to 1000 nM | – | 100 to 1000 nM | 10 to 100 nM | – | – | 100 to 1000 nM | – | 10 to 100 nM | 100 to 1000 nM | 100 to 1000 nM | < 10 nM | 100 to 1000 nM | 10 to 100 nM
